The data set relates to 661W cells expressing CNGA3 plus WT CNGB3. In words: LDH-release cytotoxicity assay, cells expressing WT channels. Particulars: 24 h. The class given is cell-based, mouse. The protocol: The mouse photoreceptor 661W cell line used in this study was generously provided by Dr. Al-Ubaidi (University of Oklahoma Health Sciences Center, Oklahoma City, OK). The 661W cells were routinely maintained in Dulbecco’s modified Eagle’s medium (Gibco, Carlsbad, CA), supplemented with 10% fetal bovine serum (Gemini Bioproducts, Sacramento, CA) and 1% penicillin/streptomycin (Gibco), at 37 °C in a humidified incubator with 5% CO2; cells were subcultured every 3–5 days. The 661W cells were transfected with pOPRSVI plasmids encoding human cone CNG channel subunits using Lipofectamine™ 2000 and OptiMEM (Life Technologies, Carlsbad, CA) according to the manufacturer’s protocol for cells in suspension. […]
For most experiments, the LDH Cytotoxicity Detection Kit (Roche Applied Science) was used according to the manufacturer’s protocol (see also [37]). […] Following treatment, half of the culture medium was transferred to another 96-well plate and the LDH released into the culture medium was measured to assess the number of damaged/dead cells. Cells in the original plate were then lysed and the total amount of cellular LDH was assessed. The percentage cytotoxicity was then calculated from the ratio of LDH concentration in the medium/cells, and was normalized to the percentage cytotoxicity in untreated cells transfected with control pOPRSVI plasmid only.

The values below come from PMC3692405, “Disease-associated mutations in CNGB3 promote cytotoxicity in photoreceptor-derived cells” (Molecular Vision, 2013).

Each structure is given as a SMILES string.

Consider `Nc1ncnc2c1nc(Sc1ccc(Cl)cc1)n2[C@@H]1O[C@@H]2COP(=O)(O)O[C@H]2[C@H]1O` [CPT-cAMP, CPT-adenosine 3′,5′-cyclic monophosphate], for which, for the setting “1 µM CPT-cAMP coapplied with 0.1 µM CPT-cGMP”, the “relative cytotoxicity (LDH release, normalized to untreated vector-only control)” value was 0.98±0.03.

As to `Nc1nc2c(nc(Sc3ccc(Cl)cc3)n2[C@@H]2O[C@@H]3COP(=O)(O)O[C@H]3[C@H]2O)c(=O)[nH]1` [CPT-cGMP, 8-(4-chlorophenylthio) guanosine 3′,5′-cyclic monophosphate], the “relative cytotoxicity (LDH release, normalized to untreated vector-only control)” value (0.1 µM CPT-cGMP) turned out to be 1.11±0.04.
